Test results as given in PubChem BioAssay AID1259407 (Chemical Carcinogenesis Research Information System (CCRIS), 2018).
Calls of active or inactive are those of the source. The rule behind the calls is not given here.

Test system: CCRIS mutagenicity, Ames/micronucleus/aberration tests
Experiment: CCRIS mutagenicity studies
[1] = Test System: AMES SALMONELLA TYPHIMURIUM, Strain/Indicator: TA98, Metabolic Activation: NONE, Method: PREINCUBATION
[2] = Test System: AMES SALMONELLA TYPHIMURIUM, Strain/Indicator: TA98, Metabolic Activation: RAT, LIVER, S-9, AROCLOR 1254, Method: PREINCUBATION
[3] = Test System: AMES SALMONELLA TYPHIMURIUM, Strain/Indicator: TA100, Metabolic Activation: NONE, Method: PREINCUBATION
[4] = Test System: AMES SALMONELLA TYPHIMURIUM, Strain/Indicator: TA1535, Metabolic Activation: NONE, Method: PREINCUBATION
[5] = Test System: AMES SALMONELLA TYPHIMURIUM, Strain/Indicator: TA1537, Metabolic Activation: NONE, Method: PREINCUBATION
[6] = Test System: AMES SALMONELLA TYPHIMURIUM, Strain/Indicator: TA98, Metabolic Activation: NONE, Method: STANDARD PLATE
[7] = Test System: AMES SALMONELLA TYPHIMURIUM, Strain/Indicator: TA100, Metabolic Activation: NONE, Method: STANDARD PLATE
[8] = Test System: AMES SALMONELLA TYPHIMURIUM, Strain/Indicator: TA1537, Metabolic Activation: NONE, Method: STANDARD PLATE

ClC1(Cl)C2(Cl)C3(Cl)C4(Cl)C(Cl)(Cl)C5(Cl)C3(Cl)C1(Cl)C5(Cl)C24Cl (configuration not stated)
mutagenic call (Test System: AMES SALMONELLA TYPHIMURIUM, Strain/Indicator: TA98, Metabolic Activation: HAMSTER, LIVER, S-9, AROCLOR 1254, Method: PREINCUBATION): inactive; negative | mutagenic call [1]: inactive; negative | mutagenic call [2]: inactive; negative | mutagenic call (Test System: AMES SALMONELLA TYPHIMURIUM, Strain/Indicator: TA100, Metabolic Activation: HAMSTER, LIVER, S-9, AROCLOR 1254, Method: PREINCUBATION): inactive; negative | mutagenic call [3]: inactive; negative | mutagenic call (Test System: AMES SALMONELLA TYPHIMURIUM, Strain/Indicator: TA100, Metabolic Activation: RAT, LIVER, S-9, AROCLOR 1254, Method: PREINCUBATION): inactive; negative | mutagenic call (Test System: AMES SALMONELLA TYPHIMURIUM, Strain/Indicator: TA1535, Metabolic Activation: HAMSTER, LIVER, S-9, AROCLOR 1254, Method: PREINCUBATION): inactive; negative | mutagenic call [4]: inactive; negative | mutagenic call (Test System: AMES SALMONELLA TYPHIMURIUM, Strain/Indicator: TA1535, Metabolic Activation: RAT, LIVER, S-9, AROCLOR 1254, Method: PREINCUBATION): inactive; negative | mutagenic call (Test System: AMES SALMONELLA TYPHIMURIUM, Strain/Indicator: TA1537, Metabolic Activation: HAMSTER, LIVER, S-9, AROCLOR 1254, Method: PREINCUBATION): inactive; negative | mutagenic call [5]: inactive; negative | mutagenic call (Test System: AMES SALMONELLA TYPHIMURIUM, Strain/Indicator: TA1537, Metabolic Activation: RAT, LIVER, S-9, AROCLOR 1254, Method: PREINCUBATION): inactive; negative

C[Si](C)(C)CN(N=O)C(N)=O
mutagenic call [3]: active; positive | mutagenic call (Test System: CHINESE HAMSTER V-79, Strain/Indicator: V-79/OUABAIN, Metabolic Activation: NONE): active; positive | mutagenic call (Test System: E. COLI, Strain/Indicator: H/R30R, Metabolic Activation: NONE, Method: PREINCUBATION): active; positive | mutagenic call (Test System: E. COLI, Strain/Indicator: HS30R UVRA, Metabolic Activation: NONE, Method: PREINCUBATION): active; positive | mutagenic call (Test System: E. COLI, Strain/Indicator: NG30 RECA, Metabolic Activation: NONE, Method: PREINCUBATION): active; positive | mutagenic call (Test System: E. COLI, Strain/Indicator: O16 POLA, Metabolic Activation: NONE, Method: PREINCUBATION): active; positive

Clc1ccc2c(c1)oc1ccccc12
mutagenic call [6]: active; positive | mutagenic call (Test System: AMES SALMONELLA TYPHIMURIUM, Strain/Indicator: TA98, Metabolic Activation: RAT, LIVER, S-9, PHENOBARBITAL AND NAPHTHOFLAVONE, Method: STANDARD PLATE): active; positive | mutagenic call [7]: active; positive | mutagenic call (Test System: AMES SALMONELLA TYPHIMURIUM, Strain/Indicator: TA100, Metabolic Activation: RAT, LIVER, S-9, PHENOBARBITAL AND NAPHTHOFLAVONE, Method: STANDARD PLATE): active; positive

Cc1cc(O)c2c(c1)C(=O)c1cc(O)c(O)c(O)c1C2=O
mutagenic call [8]: inactive; negative

O=C1OCC(CBr)=C1Cl
mutagenic call [7]: active; positive

O=C(O)c1ccccc1Nc1cc(Cl)ccc1C(=O)O
mutagenic call [1]: inactive; negative | mutagenic call [6]: inactive; negative | mutagenic call [2]: inactive; negative | mutagenic call (Test System: AMES SALMONELLA TYPHIMURIUM, Strain/Indicator: TA98, Metabolic Activation: RAT, LIVER, S-9, AROCLOR 1254, Method: STANDARD PLATE): inactive; negative | mutagenic call [7]: inactive; negative | mutagenic call (Test System: AMES SALMONELLA TYPHIMURIUM, Strain/Indicator: TA100, Metabolic Activation: RAT, LIVER, S-9, AROCLOR 1254, Method: STANDARD PLATE): inactive; negative | mutagenic call (Test System: AMES SALMONELLA TYPHIMURIUM, Strain/Indicator: TA1535, Metabolic Activation: NONE, Method: STANDARD PLATE): inactive; negative | mutagenic call (Test System: AMES SALMONELLA TYPHIMURIUM, Strain/Indicator: TA1535, Metabolic Activation: RAT, LIVER, S-9, AROCLOR 1254, Method: STANDARD PLATE): inactive; negative | mutagenic call [8]: inactive; negative | mutagenic call (Test System: AMES SALMONELLA TYPHIMURIUM, Strain/Indicator: TA1537, Metabolic Activation: RAT, LIVER, S-9, AROCLOR 1254, Method: STANDARD PLATE): inactive; negative | mutagenic call (Test System: AMES SALMONELLA TYPHIMURIUM, Strain/Indicator: TA1538, Metabolic Activation: NONE, Method: STANDARD PLATE): inactive; negative | mutagenic call (Test System: AMES SALMONELLA TYPHIMURIUM, Strain/Indicator: TA1538, Metabolic Activation: RAT, LIVER, S-9, AROCLOR 1254, Method: STANDARD PLATE): inactive; negative

COC1=CC(=O)c2c(nc(C)c3c4c([nH]c23)CCCC4)C1=O
mutagenic call (Test System: AMES SALMONELLA TYPHIMURIUM, Strain/Indicator: TA97A, Metabolic Activation: NONE, Method: STANDARD PLATE): inactive; negative | mutagenic call (Test System: AMES SALMONELLA TYPHIMURIUM, Strain/Indicator: TA97A, Metabolic Activation: RAT LIVER S-9, AROCLOR 1254, Method: STANDARD PLATE): inactive; negative | mutagenic call [6]: active; positive | mutagenic call (Test System: AMES SALMONELLA TYPHIMURIUM, Strain/Indicator: TA98, Metabolic Activation: RAT LIVER S-9, AROCLOR 1254, Method: STANDARD PLATE): active; positive | mutagenic call [7]: inactive; negative | mutagenic call (Test System: AMES SALMONELLA TYPHIMURIUM, Strain/Indicator: TA100, Metabolic Activation: RAT LIVER S-9, AROCLOR 1254, Method: STANDARD PLATE): inactive; negative | mutagenic call (Test System: AMES SALMONELLA TYPHIMURIUM, Strain/Indicator: TA102, Metabolic Activation: NONE, Method: STANDARD PLATE): inactive; negative | mutagenic call (Test System: AMES SALMONELLA TYPHIMURIUM, Strain/Indicator: TA102, Metabolic Activation: RAT LIVER S-9, AROCLOR 1254, Method: STANDARD PLATE): inactive; negative

Nc1ccc(S(=O)(=O)O)c2ccccc12
mutagenic call [1]: inactive; negative | mutagenic call (Test System: AMES SALMONELLA TYPHIMURIUM, Strain/Indicator: TA98, Metabolic Activation: RAT LIVER S-9, PHENOBARBITAL AND BETA-NAPHTHOFLAVONE, Method: PREINCUBATION): inactive; negative | mutagenic call [3]: inactive; negative | mutagenic call (Test System: AMES SALMONELLA TYPHIMURIUM, Strain/Indicator: TA100, Metabolic Activation: RAT LIVER S-9, PHENOBARBITAL AND BETA-NAPHTHOFLAVONE, Method: PREINCUBATION): inactive; negative | mutagenic call [4]: inactive; negative | mutagenic call (Test System: AMES SALMONELLA TYPHIMURIUM, Strain/Indicator: TA1535, Metabolic Activation: RAT LIVER S-9, PHENOBARBITAL AND BETA-NAPHTHOFLAVONE, Method: PREINCUBATION): inactive; negative | mutagenic call [5]: inactive; negative | mutagenic call (Test System: AMES SALMONELLA TYPHIMURIUM, Strain/Indicator: TA1537, Metabolic Activation: RAT LIVER S-9, PHENOBARBITAL AND BETA-NAPHTHOFLAVONE, Method: PREINCUBATION): inactive; negative | mutagenic call (Test System: AMES SALMONELLA TYPHIMURIUM, Strain/Indicator: TA1538, Metabolic Activation: NONE, Method: PREINCUBATION): inactive; negative | mutagenic call (Test System: AMES SALMONELLA TYPHIMURIUM, Strain/Indicator: TA1538, Metabolic Activation: RAT LIVER S-9, PHENOBARBITAL AND BETA-NAPHTHOFLAVONE, Method: PREINCUBATION): inactive; negative | mutagenic call (Test System: E.COLI, Strain/Indicator: WP2UVRA, Metabolic Activation: NONE, Method: PREINCUBATION): inactive; negative | mutagenic call (Test System: E.COLI, Strain/Indicator: WP2UVRA, Metabolic Activation: RAT LIVER S-9, PHENOBARBITAL AND BETA-NAPHTHOFLAVONE, Method: PREINCUBATION): inactive; negative

C=CCN(CC=C)CCN(CC=C)CC=C.[Cl-].[Cl-].[Pd+2]
mutagenic call (Test System: AMES SALMONELLA TYPHIMURIUM, Strain/Indicator: TA92, Metabolic Activation: NONE, Method: STANDARD PLATE): inactive; negative | mutagenic call [6]: inactive; negative | mutagenic call [7]: inactive; negative | mutagenic call (Test System: AMES SALMONELLA TYPHIMURIUM, Strain/Indicator: TA2410, Metabolic Activation: NONE, Method: STANDARD PLATE): inactive; negative | mutagenic call (Test System: E. COLI, Strain/Indicator: TM6, Metabolic Activation: NONE, Method: STANDARD PLATE): active; positive | mutagenic call (Test System: E. COLI, Strain/Indicator: TM9, Metabolic Activation: NONE, Method: STANDARD PLATE): active; positive
